The values below come from patent US20240246937A1 (MERCK SHARP & DOHME LLC, priority 2021, published 2024).

This test deals with recombinant IL4I1 (Homo sapiens (Human), UniProt Q96RQ9). The experiment in a line: IL4I1 Enzymatic Assay (Amplex Red/HRP coupled fluorescence detection of H2O2). Type of test: biochemical. Particulars: 240 min; recombinant IL4I1, four-hour pre-incubation with compound. In outline: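 Ten-point, 1:3 compound titrations were fitted by four-parameter sigmoidal regression to give EC50. Resorufin fluorescence (544/590 nm) from Amplex Red/HRP-coupled H2O2 detection was read 120 min after adding 1 mM each aromatic amino acid to 1 nM IL4I1, following a 4 h compound pre-incubation in pH 7.0 Hepes buffer.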

Broadly, the EC50 is the concentration at which the effect is half-maximal.

Sequence of recombinant IL4I1 (Q96RQ9 22-567): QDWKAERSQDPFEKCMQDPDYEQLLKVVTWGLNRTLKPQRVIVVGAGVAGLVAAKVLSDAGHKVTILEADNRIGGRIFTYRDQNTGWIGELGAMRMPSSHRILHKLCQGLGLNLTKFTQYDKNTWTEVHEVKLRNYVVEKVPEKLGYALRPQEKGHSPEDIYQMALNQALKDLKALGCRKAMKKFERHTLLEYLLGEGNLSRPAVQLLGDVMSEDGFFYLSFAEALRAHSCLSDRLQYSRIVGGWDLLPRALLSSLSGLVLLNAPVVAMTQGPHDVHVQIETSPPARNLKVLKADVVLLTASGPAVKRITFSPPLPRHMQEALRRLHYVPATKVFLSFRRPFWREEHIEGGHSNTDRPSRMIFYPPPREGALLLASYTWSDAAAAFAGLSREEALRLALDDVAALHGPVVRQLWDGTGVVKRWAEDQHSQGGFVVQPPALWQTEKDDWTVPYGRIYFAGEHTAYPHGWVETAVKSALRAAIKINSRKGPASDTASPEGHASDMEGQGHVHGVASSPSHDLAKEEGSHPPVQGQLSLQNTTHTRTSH

As for `CC1(n2ccn(Cc3ccc(-n4nccn4)cn3)c(=O)c2=O)CC1` [Example 202, 1-((5-(2H-1,2,3-triazol-2-yl)pyridin-2-yl)methyl)-4-(1-methylcyclopropyl)-1,4-dihydropyrazine-2,3-dione], the EC50 was 44 nM.
Turning to `O=c1c(=O)n(C23CC(F)(C2)C3)ccn1Cc1cc(-c2ccccn2)no1` [Example 203, 1-(3-fluorobicyclo[1.1.1]pentan-1-yl)-4-((3-(pyridin-2-yl)isoxazol-5-yl)methyl)-1,4-dihydropyrazine-2,3-dione], the EC50 amounted to 19 nM.
As to `N#CC1(n2ccn(Cc3ccc(-c4nccs4)nn3)c(=O)c2=O)CC1` [Example 204, 1-(2,3-dioxo-4-((6-(thiazol-2-yl)pyridazin-3-yl)methyl)-3,4-dihydropyrazin-1(2H)-yl)cyclopropane-1-carbonitrile], the EC50 worked out at 78 nM.
For the compound `O=c1c(=O)n(C23CC(F)(C2)C3)ccn1Cc1ccc(-c2nccs2)nn1` [Example 205, 1-(3-fluorobicyclo[1.1.1]pentan-1-yl)-4-((6-(thiazol-2-yl)pyridazin-3-yl)methyl)-1,4-dihydropyrazine-2,3-dione], the EC50 amounted to 24 nM.
`CC1(n2ccn(Cc3cc(-c4ccccn4)on3)c(=O)c2=O)CC1` [Example 206, 1-(1-methylcyclopropyl)-4-((5-(pyridin-2-yl)isoxazol-3-yl)methyl)-1,4-dihydropyrazine-2,3-dione]: the 50% effective concentration (EC50) is 28 nM.
Regarding `N#CC1(n2ccn(Cc3cc(-c4ccccn4)on3)c(=O)c2=O)CC1` [Example 207, 1-(2,3-dioxo-4-((5-(pyridin-2-yl)isoxazol-3-yl)methyl)-3,4-dihydropyrazin-1(2H)-yl)cyclopropane-1-carbonitrile], the EC50 was 43 nM.
For `O=c1c(=O)n(C23CC(F)(C2)C3)ccn1Cc1cc(-c2ccccn2)on1` [Example 208, 1-(3-fluorobicyclo[1.1.1]pentan-1-yl)-4-((5-(pyridin-2-yl)isoxazol-3-yl)methyl)-1,4-dihydropyrazine-2,3-dione], the EC50 worked out at 21 nM.
With `CC1(n2ccn(Cc3cc(-c4cccnc4)on3)c(=O)c2=O)CC1` [Example 209, 1-(1-methylcyclopropyl)-4-((5-(pyridin-3-yl)isoxazol-3-yl)methyl)-1,4-dihydropyrazine-2,3-dione], the EC50 worked out at 26 nM.
With `N#CC1(n2ccn(Cc3cc(-c4cccnc4)on3)c(=O)c2=O)CC1` [Example 210, 1-(2,3-dioxo-4-((5-(pyridin-3-yl)isoxazol-3-yl)methyl)-3,4-dihydropyrazin-1(2H)-yl)cyclopropane-1-carbonitrile], the EC50 is 92 nM.
In the case of `O=c1c(=O)n(C23CC(F)(C2)C3)ccn1Cc1cc(-c2cccnc2)on1` [Example 211, 1-(3-fluorobicyclo[1.1.1]pentan-1-yl)-4-((5-(pyridin-3-yl)isoxazol-3-yl)methyl)-1,4-dihydropyrazine-2,3-dione], the EC50 is 61 nM.
For the compound `O=c1c(=O)n(C23CC(C2)C3)ccn1Cc1cc(-c2cccnc2)on1` [Example 212, 1-(bicyclo[1.1.1]pentan-1-yl)-4-((5-(pyridin-3-yl)isoxazol-3-yl)methyl)-1,4-dihydropyrazine-2,3-dione], the EC50 was 10 nM.
Take `O=c1c(=O)n(C23CC(F)(C2)C3)ccn1Cc1ccc(-c2cncs2)nn1` [Example 213, 1-(3-fluorobicyclo[1.1.1]pentan-1-yl)-4-((6-(thiazol-5-yl)pyridazin-3-yl)methyl)-1,4-dihydropyrazine-2,3-dione]: the EC50 worked out at 29 nM.
As for `O=c1c(=O)n(C23CC(F)(C2)C3)ccn1Cc1ccc(-c2ccccn2)nn1` [Example 214, 1-(3-fluorobicyclo[1.1.1]pentan-1-yl)-4-((6-(pyridin-2-yl)pyridazin-3-yl)methyl)-1,4-dihydropyrazine-2,3-dione], the EC50 is 56 nM.
For `O=c1c(=O)n(C23CC(F)(C2)C3)ccn1Cc1ccc(-c2cccnc2)nn1` [Example 215, 1-(3-fluorobicyclo[1.1.1]pentan-1-yl)-4-((6-(pyridin-3-yl)pyridazin-3-yl)methyl)-1,4-dihydropyrazine-2,3-dione], the EC50 worked out at 57 nM.
Take `O=c1c(=O)n(C2(CF)CC2)ccn1Cc1ccc(-n2nccn2)cn1` [Example 216, 1-((5-(2H-1,2,3-triazol-2-yl)pyridin-2-yl)methyl)-4-(1-(fluoromethyl)cyclopropyl)-1,4-dihydropyrazine-2,3-dione]: the EC50 came to 60 nM.
For the compound `O=c1c(=O)n(C23CC(F)(C2)C3)ccn1Cc1ccc(-n2nccn2)cn1` [Example 217, 1-((5-(2H-1,2,3-triazol-2-yl)pyridin-2-yl)methyl)-4-(3-fluorobicyclo[1.1.1]pentan-1-yl)-1,4-dihydropyrazine-2,3-dione], the EC50 was found to be 42 nM.
In the case of `O=c1c(=O)n(C2(CF)CC2)ccn1Cc1ccc(-n2cccn2)cn1` [Example 218, 1-((5-(1H-pyrazol-1-yl)pyridin-2-yl)methyl)-4-(1-(fluoromethyl)cyclopropyl)-1,4-dihydropyrazine-2,3-dione], the EC50 came to 56 nM.
Regarding `O=c1c(=O)n(C23CC(F)(C2)C3)ccn1Cc1ccc(-n2cccn2)cn1` [Example 219, 1-((5-(1H-pyrazol-1-yl)pyridin-2-yl)methyl)-4-(3-fluorobicyclo[1.1.1]pentan-1-yl)-1,4-dihydropyrazine-2,3-dione], the concentration for a half-maximal effect (EC50) came out at 59 nM.
For the compound `O=c1c(=O)n(C23CC(F)(C2)C3)ccn1Cc1ccc(-n2cccn2)nc1` [Example 220, 1-((6-(1H-pyrazol-1-yl)pyridin-3-yl)methyl)-4-(3-fluorobicyclo[1.1.1]pentan-1-yl)-1,4-dihydropyrazine-2,3-dione], the EC50 stood at 50 nM.
On to `CC1(n2ccn(Cc3cc(-c4cccnc4)no3)c(=O)c2=O)CC1` [Example 221, 1-(1-methylcyclopropyl)-4-((3-(pyridin-3-yl)isoxazol-5-yl)methyl)-1,4-dihydropyrazine-2,3-dione], for which the EC50 is 14 nM.
As to `N#CC1(n2ccn(Cc3cc(-c4cccnc4)no3)c(=O)c2=O)CC1` [Example 222, 1-(2,3-dioxo-4-((3-(pyridin-3-yl)isoxazol-5-yl)methyl)-3,4-dihydropyrazin-1(2H)-yl)cyclopropane-1-carbonitrile], the EC50 amounted to 316 nM.
For the compound `O=c1c(=O)n(C23CC(C2)C3)ccn1Cc1cc(-c2cccnc2)no1` [Example 223, 1-(bicyclo[1.1.1]pentan-1-yl)-4-((3-(pyridin-3-yl)isoxazol-5-yl)methyl)-1,4-dihydropyrazine-2,3-dione], the EC50 is 10 nM.
For `O=c1c(=O)n(C23CC(F)(C2)C3)ccn1Cc1cc(-c2cccnc2)no1` [Example 224, 1-(3-fluorobicyclo[1.1.1]pentan-1-yl)-4-((3-(pyridin-3-yl)isoxazol-5-yl)methyl)-1,4-dihydropyrazine-2,3-dione], the EC50 was determined as 101 nM.
Regarding `O=c1c(=O)n(C2(CF)CC2)ccn1Cc1cc(-c2ccccn2)no1` [Example 225, 1-(1-(fluoromethyl)cyclopropyl)-4-((3-(pyridin-2-yl)isoxazol-5-yl)methyl)-1,4-dihydropyrazine-2,3-dione], the EC50 came to 41 nM.
`O=C1C(=O)N(C23CC(F)(C2)C3)CCN1Cc1ccc(-c2ccccn2)nn1` [Example 226]: the EC50 came to 78 nM.
For `O=c1c(=O)n(C2(CF)CC2)ccn1Cc1ccc(-c2cccnc2)nn1` [Example 227, 1-(1-(fluoromethyl)cyclopropyl)-4-((6-(pyridin-3-yl)pyridazin-3-yl)methyl)-1,4-dihydropyrazine-2,3-dione], the 50% effective concentration (EC50) was determined as 69 nM.
For `O=C1C(=O)N(C23CC(F)(C2)C3)CCN1Cc1ccc(-c2ccccc2F)nn1` [Example 228, 1-(3-fluorobicyclo[1.1.1]pentan-1-yl)-4-((6-(2-fluorophenyl)pyridazin-3-yl)methyl)piperazine-2,3-dione], the EC50 amounted to 23 nM.
For the compound `O=c1c(=O)n(C23CC(F)(C2)C3)ccn1Cc1ccc(-c2ccccn2)cn1` [Example 229, 1-([2,3′-bipyridin]-6′-ylmethyl)-4-(3-fluorobicyclo[1.1.1]pentan-1-yl)-1,4-dihydropyrazine-2,3-dione], the EC50 came to 54 nM.
Regarding `O=c1c(=O)n(C23CC(F)(C2)C3)ccn1Cc1ccc(-n2ccnn2)nc1` [Example 230, 1-((6-(1H-1,2,3-triazol-1-yl)pyridin-3-yl)methyl)-4-(3-fluorobicyclo[1.1.1]pentan-1-yl)-1,4-dihydropyrazine-2,3-dione], the EC50 was 91 nM.
For the compound `O=c1c(=O)n(C2(CF)CC2)ccn1Cc1ccc(-n2cccn2)nc1` [Example 231, 1-((6-(1H-pyrazol-1-yl)pyridin-3-yl)methyl)-4-(1-(fluoromethyl)cyclopropyl)-1,4-dihydropyrazine-2,3-dione], the EC50 turned out to be 22 nM.
With `O=C1C(=O)N(C23CC(F)(C2)C3)CCN1Cc1cc(-c2ccccn2)no1` [Example 232, 1-(3-fluorobicyclo[1.1.1]pentan-1-yl)-4-((3-(pyridin-2-yl)isoxazol-5-yl)methyl)piperazine-2,3-dione], the EC50 is 82 nM.
For `O=c1c(=O)n(C2(CF)CC2)ccn1Cc1ccc(-c2nccs2)nn1` [Example 233, 1-(1-(fluoromethyl)cyclopropyl)-4-((6-(thiazol-2-yl)pyridazin-3-yl)methyl)-1,4-dihydropyrazine-2,3-dione], the concentration for a half-maximal effect (EC50) was determined as 54 nM.
On to `O=C1C(=O)N(C23CC(F)(C2)C3)CCN1Cc1ccc(-c2nccs2)nn1` [Example 234, 1-(3-fluorobicyclo[1.1.1]pentan-1-yl)-4-((6-(thiazol-2-yl)pyridazin-3-yl)methyl)piperazine-2,3-dione], for which the EC50 is 40 nM.
Regarding `O=c1c(=O)n(C2(CF)CC2)ccn1Cc1ccc(-n2ccnn2)nc1` [Example 235, 1-((6-(1H-1,2,3-triazol-1-yl)pyridin-3-yl)methyl)-4-(1-(fluoromethyl)cyclopropyl)-1,4-dihydropyrazine-2,3-dione], the EC50 worked out at 18 nM.
